Like-named read-outs stand apart in the source and are kept apart here.
What was measured:
[1] = Calcein transchelation (calcein release) assay; type: physicochemical; details: calcein 100 nM, 4 h at room temperature; estimation, assay not fully quantitative; read-out: Apparent affinity (pseudo‐affinity constant Kd for Fe3+)
[2] = target: T1, KLK8 (Homo sapiens, UniProt O60259); experiment: KLK8 fluorogenic enzyme inhibition assay (Boc-VPR-AMC)
T1 sequence (O60259 33-260): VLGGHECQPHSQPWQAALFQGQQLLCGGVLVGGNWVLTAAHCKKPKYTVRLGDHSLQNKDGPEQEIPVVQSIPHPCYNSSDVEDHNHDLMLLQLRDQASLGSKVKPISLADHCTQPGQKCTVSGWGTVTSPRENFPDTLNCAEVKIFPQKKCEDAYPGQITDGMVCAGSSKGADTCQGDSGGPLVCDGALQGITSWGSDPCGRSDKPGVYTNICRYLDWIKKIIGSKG
Method: (§1) All enzyme stocks were stored at −20 °C and purchased from R&D Systems as proenzymes (KLK6, KLK8, KLK13) or as mature and active forms (KLK5). Activation of KLK6, KLK8, and KLK13 is performed in optimized buffers. The activation reaction is initiated by Lysyl‐Endopeptidase at 2.5 mU mL^−1 (Wako Bioproducts). The activation reaction is stopped by diluting the enzyme to 0.5 μg mL^−1 in assay buffer (50 mM Tris, 1 M Citrate, 0.05% w/v Brij‐35, pH 8) to obtain an active enzyme stock. KLK1 was purchased from R & D Systems as pro‐KLK1. Activation of KLK1 is performed in 50 mM Tris‐HCl, 10 mM CaCl2, 150 mM NaCl, 0.05% Brij‐35, pH 7.5. The activation reaction is initiated by bacterial thermolysin at 0.4 μg mL^−1 (Sigma‐Aldrich) and stopped by addition of 100 mM EDTA (Sigma‐Aldrich) to obtain an active KLK1 stock at the same concentration of 100 μg mL^−1. […] All enzyme stocks were stored at −20 °C. H‐PFR‐AMC (KLK1), Boc‐VPR‐AMC (KLK5, KLK8, KLK13), Boc‐QAR‐AMC (KLK6, Plasmin), substrates were purchased from Bachem. […] Plasmin (Sigma‐Aldrich) was purchased in mature and active form.
(§2) Compounds were screened on KLKs using a BMG Fluostar microplate reader (black 96‐well microplates). Hit compounds were screened on the selected group of enzymes using optimized concentrations and buffers (KLK1 0.8 nM, KLK4 10 nM, KLK5 0.2 nM; KLK6 1.9 nM; KLK7 6 nM; KLK8 0.2 nM; KLK11 5.2 nM, KLK13 0.47 nM, KLK14 2.5 nM, plasmin 3.3 nM, thrombin 0.1 nM, tissue‐plasminogen activator (tPA) 0.1 nM, matriptase 1 nM, cathepsin L 2 nM) either in absence or prior preincubation in the presence of 100 μM of Fe^3+.
(§3) The proteases are first preincubated for 15 min with each compound (50 and 100 μM) or with DMSO (<2%, negative control) in a total volume of 85 μL of 50 mM Tris buffer, 1 M citrate, 0.05% Brij‐35, pH 7, 37 °C. The reaction is triggered by the appropriate substrate at the optimized concentration in 15 μL of 50 mM Tris buffer, 1 M citrate, 0.05% Brij‐35, pH 8 (H‐PFR‐AMC 100 μM; Boc‐VPR‐AMC 100 μM; Boc‐QAR‐AMC 100 μM; Meo‐Suc‐RPY‐AMC 150 μM, Z‐LR‐AMC 100 μM, Z‐GGR‐AMC 100 μM) and followed for 30 min at 37 °C. […] The release of the AMC fluorescent group is detected using the following wavelengths: λex = 360 nm and λem = 460 nm. The percent inhibition is calculated from Equation (1) where V 0 is the initial rate of the DMSO control, the initial rate in the presence of the inhibitor V i. (1) %inhibition=(1−(vi/v0))×100
(§4) The equation is entered in the Kaleidagraph 4.5 software for curve fitting f([I]) = % Inhibition, where [I] is the inhibitor concentration.
(§5) The mechanism of inhibition was determined by varying substrate and inhibitor concentrations, the type of inhibition and inhibition parameter (Ki or Ki′) are determined by Dixon's plots.

[3] = tested on: targeted KLKs (KLK1, KLK6, KLK8); experiment: Impact of preincubated compound (50 μM) and Fe3+ (100 μM) on targeted KLKs; type: biochemical, human; details: compound 50 μM preincubated with Fe3+ 100 μM
Method: Next, we evaluated the impact of preincubated mixtures of each compound at 50 μM and Fe^3+ at 100 μM to model an iron overload condition on targeted KLKs (Figure S5, Supporting Information).

[4] = target: KLK6 (Homo sapiens, UniProt Q92876); experiment: KLK6 fluorogenic enzyme inhibition assay (Boc-QAR-AMC)
Method: as §1, §2, §3, §4, §5

[5] = target: KLK1 (Homo sapiens, UniProt P06870); experiment: KLK1 fluorogenic enzyme inhibition assay (H-PFR-AMC); details: NI = not a hit (not above 50% inhibition at 50 μM)
KLK1, sequence (P06870 25-262): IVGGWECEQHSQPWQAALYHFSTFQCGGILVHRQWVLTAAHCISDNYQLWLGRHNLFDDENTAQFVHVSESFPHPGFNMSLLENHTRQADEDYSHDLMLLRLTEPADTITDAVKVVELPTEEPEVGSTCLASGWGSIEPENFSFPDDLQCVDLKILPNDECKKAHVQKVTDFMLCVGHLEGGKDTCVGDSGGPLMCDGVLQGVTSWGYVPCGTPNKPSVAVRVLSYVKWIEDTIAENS
Method: as §1, §2, §3, §4, §5

[6] = target: T2, KLK13 (Homo sapiens, UniProt Q9UKR3); experiment: Selectivity screening, KLK13; details: read-out: percentage of inhibition KLK13
T2 sequence (Q9UKR3 26-277 limits assumed): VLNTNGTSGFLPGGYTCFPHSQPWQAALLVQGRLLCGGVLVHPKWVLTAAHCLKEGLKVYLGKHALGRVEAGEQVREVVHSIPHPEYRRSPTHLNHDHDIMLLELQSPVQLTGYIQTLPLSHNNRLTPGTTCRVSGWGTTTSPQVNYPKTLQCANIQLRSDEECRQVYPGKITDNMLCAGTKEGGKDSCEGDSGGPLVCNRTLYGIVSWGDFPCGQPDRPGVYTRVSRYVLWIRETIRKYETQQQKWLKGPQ
Method: (§6) All enzyme stocks were stored at −20 °C and purchased from R&D Systems as proenzymes (KLK6, KLK8, KLK13) or as mature and active forms (KLK5). Activation of KLK6, KLK8, and KLK13 is performed in optimized buffers. The activation reaction is initiated by Lysyl‐Endopeptidase at 2.5 mU mL^−1 (Wako Bioproducts). The activation reaction is stopped by diluting the enzyme to 0.5 μg mL^−1 in assay buffer (50 mM Tris, 1 M Citrate, 0.05% w/v Brij‐35, pH 8) to obtain an active enzyme stock. KLK1 was purchased from R & D Systems as pro‐KLK1. Activation of KLK1 is performed in 50 mM Tris‐HCl, 10 mM CaCl2, 150 mM NaCl, 0.05% Brij‐35, pH 7.5. The activation reaction is initiated by bacterial thermolysin at 0.4 μg mL^−1 (Sigma‐Aldrich) and stopped by addition of 100 mM EDTA (Sigma‐Aldrich) to obtain an active KLK1 stock at the same concentration of 100 μg mL^−1. The activation reactions for KLK7 are initiated bacterial thermolysin at 0.4 μg mL^−1 (Sigma‐Aldrich) and stopped by addition of 100 mM EDTA (Sigma‐Aldrich) to obtain active stocks. All enzyme stocks were stored at −20 °C. H‐PFR‐AMC (KLK1), Boc‐VPR‐AMC (KLK5, KLK8, KLK13), Boc‐QAR‐AMC (KLK6, Plasmin), substrates were purchased from Bachem. MeO‐Suc‐RPY‐AMC (KLK7) substrate was purchased from AAT Bioquest. Plasmin (Sigma‐Aldrich) was purchased in mature and active form.
as §2, §3

[7] = target: T3, KLK4 (Homo sapiens, UniProt Q9Y5K2); experiment: Selectivity screening, KLK4; type: biochemical; details: 50 μM compound, without Fe3+; read-out: percentage of inhibition KLK4
T3 construct: purchased R&D Systems
T3 sequence (Q9Y5K2 31-254): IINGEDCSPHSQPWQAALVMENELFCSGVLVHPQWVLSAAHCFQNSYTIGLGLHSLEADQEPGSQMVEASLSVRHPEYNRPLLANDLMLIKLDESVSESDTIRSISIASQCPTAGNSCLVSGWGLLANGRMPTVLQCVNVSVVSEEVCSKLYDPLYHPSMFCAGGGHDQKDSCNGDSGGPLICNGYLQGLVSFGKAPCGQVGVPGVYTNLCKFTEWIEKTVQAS

[8] = CCK8 cell viability assay, SH-SY5Y; type: cell-based; details: human, SH-SY5Y neuroblastoma cells, 25 and 50 μM, in absence or presence of iron (100 µM FAC), read-out: percentage of cell viability
Method: (§7) Human neuroblastoma cell line (SH-SY5Y) was purchased at American Type Culture Collection
(§8) Both cell lines were cultured in Dulbecco’s Modified Eagle Medium (DMEM)
(§9) containing 10% heat inactivated fetal bovine serum (FBS), 1% Penicillin/Streptomycin, 10 mM
(§10) Sodium Pyruvate, 2 mM L-Glutamine and 4,5 g/L D-glucose at 37°C, in a 5% humidified
(§11) incubator. Cells were cultivated until 80% confluence in flasks then were plated in 96-well
(§12) plates. For this experiment, SH-SY5Y were used at 10th passage and HMC3 at 13th. SH-SY5Y
(§13) cells were seeded at a density of 3x10^4 cells/well and HMC3 at a density of 10^4 cells/well. After
(§14) seeding, cells were left in complete medium overnight to adhere to the plates. After that, cells
(§15) were treated using inhibitors solubilized in DMSO at stock concentrations of 2,5 mM or 5 mM
(§16) with or without 10 mM iron. Iron solution was prepared by using FAC (Ferric Ammonium
(§17) Citrate, Sigma®) at stock concentration of 25 mM. After 24h of treatment, cell viability was
(§18) assessed with the CCK8 (Cell-Counting Kit 8) from TargetMol. After treatments, 10 µL of CCK8
(§19) reagent was diluted in 90 µL of complete medium and added to each well. After 3 hours at
(§20) 37°C, cell viability was assessed by absorbance measurement at 460 nm. Each viability assay
(§21) is the mean of two independent experiments performed in triplicates.
(§22) treated for 24h with the two selected concentrations of inhibitor (25 µM or 50 µM)
(§23) preincubated or not with 100 µM of FAC. The data are the mean of two independent
experiments performed in triplicates.

[9] = UV–vis spectroscopy of Fe3+ chelation and complex stability; type: physicochemical; details: activity buffer pH 7.4, 1:1 ratio, t = 0 to 240 min
Method: UV–vis analysis of DFX was first performed to monitor the chelation process and the stability of the Fe^3+ complex over time at a 1:1 ratio, typically representing the duration of inhibition assay (30 min to 4 h) (Figure S1, Supporting Information). In these conditions of pH (7.4) and ligand‐to‐iron ratio and according to Steinhauser et al. the main species in solution is assigned to [Fe(DFX)2]^3−.^[ [49] ^] Indeed, we aimed to explore not only the chelation properties but also the impact of the chelated species on enzyme inhibition.
2.c. Chelation properties, iron interactions, and selectivity profiles of selected compounds targeting KLK activity.
Figure S2: Stability of the chelated species as monitored by spectrophotometry. UV/VIS spectra of molecules alone using activity buffer at pH 7.4 (in orange at 500 µM) or in the presence of FeCl3 (ratio of 1:1) at different times (t = 0 in red, 30 min in black, 60 min in blue and 240 min in green). The purple trace corresponds to iron only at 500 µM All data are representative of 2 independent experiments performed in duplicate. […]

[10] = target: T4, KLK14 (Homo sapiens, UniProt Q9P0G3); experiment: Selectivity screening, KLK14; type: biochemical; details: 50 μM compound, without Fe3+; read-out: percentage of inhibition KLK14
T4 construct: purchased R&D Systems
T4 sequence (Q9P0G3 25-251): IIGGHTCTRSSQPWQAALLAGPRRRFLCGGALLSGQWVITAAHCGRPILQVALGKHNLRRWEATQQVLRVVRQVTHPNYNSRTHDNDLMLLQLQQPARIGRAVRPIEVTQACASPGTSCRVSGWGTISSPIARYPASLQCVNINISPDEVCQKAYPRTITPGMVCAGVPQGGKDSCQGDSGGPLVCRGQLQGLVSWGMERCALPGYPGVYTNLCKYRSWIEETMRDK

[11] = tested on: KLK's of the CNS triad (KLK1‐KLK6‐KLK8); experiment: Reversibility analysis by dilution after preincubation; type: biochemical, human; details: 100-fold dilution after 15 min preincubation
Method: Aliquots of reaction mixtures (1 μL) were added to 99 μL of buffer containing the fluorogenic substrate (experimental conditions identical to the routine protocol used for a given enzyme). The mechanism of inhibition was determined by varying substrate and inhibitor concentrations, the type of inhibition and inhibition parameter (Ki or Ki′) are determined by Dixon's plots.

[12] = target: T5, KLK5 (Homo sapiens, UniProt Q9Y337); experiment: Selectivity screening, KLK5; details: read-out: percentage of inhibition KLK5
T5 sequence (Q9Y337 67-293 limits assumed): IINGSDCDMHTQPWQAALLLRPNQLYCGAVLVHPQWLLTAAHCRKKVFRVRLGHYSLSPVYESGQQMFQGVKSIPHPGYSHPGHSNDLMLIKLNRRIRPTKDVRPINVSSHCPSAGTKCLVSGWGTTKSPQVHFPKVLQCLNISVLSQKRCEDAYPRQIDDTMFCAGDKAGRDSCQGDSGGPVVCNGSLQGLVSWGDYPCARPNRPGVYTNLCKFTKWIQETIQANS
Method: as §6, §2, §3

[13] = CCK8 cell viability assay, HMC3; type: cell-based; details: human, HMC3 microglial cells; HMC3, 24h, 25 and 50 μM, in absence or presence of iron (100 µM FAC); read-out: percentage of cell viability
Method: as §7, §8, §9, §10, §11, §12, §13, §14, §15, §16, §17, §18, §19, §20, §21, §22, §23
experiments performed in triplicates.

[14] = target: T6, KLK11 (Homo sapiens, UniProt Q9UBX7); experiment: Selectivity screening, KLK11; type: biochemical; details: 50 μM compound, without Fe3+; read-out: percentage of inhibition KLK11
T6 construct: purchased R&D Systems
T6 sequence (Q9UBX7 54-282): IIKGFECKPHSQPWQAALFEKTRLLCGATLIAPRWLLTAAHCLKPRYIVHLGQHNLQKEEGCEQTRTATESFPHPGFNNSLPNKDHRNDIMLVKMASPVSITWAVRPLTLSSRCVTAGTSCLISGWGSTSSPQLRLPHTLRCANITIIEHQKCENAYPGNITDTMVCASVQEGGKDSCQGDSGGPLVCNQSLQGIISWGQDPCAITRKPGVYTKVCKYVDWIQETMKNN

[15] = IC50 KLK8, 15 min preincubation at 37 °C, NI = not a hit (not above 50% inhibition at 50 μM)

CC(C)(C)n1nc(-c2ccccc2O)nc1-c1ccccc1O [3d]
Kd [1]: 2.15 ± 0.11 nM
IC50 [2]: > 50 µM
change of inhibitory activity in the presence of iron [3]: do not show an increased inhibitory activity in the presence of iron

O=C(O)[C@H]1CC[C@H](n2nc(-c3ccccc3O)nc2-c2ccccc2O)CC1 [3fb]
IC50 [2]: > 50 µM

COC(=O)C1CCCN1C(=O)c1ccc(-n2nc(-c3ccccc3O)nc2-c2ccccc2O)cc1 (stereo not drawn) [3ma]
Kd [1]: 0.105 ± 0.022 nM
IC50 [2]: > 50 µM

COc1ccccc1-c1nc(-c2ccccc2OC)n(-c2ccc(C(=O)O)cc2)n1 [compound 21]
IC50 [4]: > 50 µM
IC50 [2]: > 50 µM
IC50 ([5]; IC50 KLK1, 15 min preincubation at 37 °C): > 50 µM

O=C(O)CNC(=O)c1ccc(-n2nc(-c3ccccc3O)nc2-c2ccccc2O)cc1 [3jb]
Kd [1]: 0.078 ± 0.009 nM
IC50 [2]: 27 ± 0.6 µM

COc1ccc(-n2nc(-c3ccccc3O)nc2-c2ccccc2O)cc1 [3q]
IC50 [2, 15]: > 50 µM

O=C(O)Cn1nc(-c2ccccc2O)nc1-c1ccccc1O [3h]
Kd [1]: 0.22 ± 0.024 nM
IC50 [2]: > 50 µM

O=C(O)c1ccc(-n2nc(-c3ccccc3O)nc2-c2ccccc2O)cc1 [3a, Deferasirox]
inhibition at 50 µM [6]: 95.1%
inhibition at 50 µM [7]: 80.6%
Kd [1]: 0.549 ± 0.007 nM
viability at 24 h [8]: > 80%
UV–vis spectrum in the presence of FeCl3 (iron complex formation) [9]: appearance of an absorption band with a maximum at 468 nm
inhibition at 50 µM [10]: 94.2%
Ki′ KLK8 ([2]; Dixon plot, 100 μM substrate, without Fe3+): 8 µM
Type of inhibition KLK8 ([2]; Dixon plot, without Fe3+): Uncompetitive
Type of inhibition KLK8 ([2]; Dixon plot, without Fe3+, listed as DFX): uncompetitive inhibition
IC50 [2, 15]: 29.2 ± 1 µM
IC50 ([2]; IC50 KLK8, initial screening of an in‐house array of 1,2,4‐triazole derivatives): ~30 µM
inhibition at 50 µM ([2]; read-out: percentage of inhibition KLK8): 70.1%
reversibility and time dependence of inhibition [11]: reversible and time‐independent inhibitors
inhibition at 50 µM [12]: 85.1%
viability at 24 h [13]: > 80%
inhibition at 50 µM [14]: 90.6%

NC(=O)c1ccc(-n2nc(-c3ccccc3O)nc2-c2ccccc2O)cc1 [3u]
Kd [1]: 0.093 ± 0.007 nM
IC50 [2]: 23.7 ± 2.3 µM

COC(=O)C(Cc1c[nH]c2ccccc12)NC(=O)c1ccc(-n2nc(-c3ccccc3O)nc2-c2ccccc2O)cc1 (stereo not drawn) [3la]
Kd [1]: 0.13 ± 0.02 nM
IC50 [2]: > 50 µM

O=S(=O)(O)c1ccc(-n2nc(-c3ccccc3O)nc2-c2ccccc2O)cc1 [3t]
Kd [1]: 0.165 ± 0.017 nM
UV–vis spectrum in the presence of FeCl3 (iron complex formation) [9]: appearance of an absorption band with a maximum at 468 nm
IC50 [2]: 29.5 ± 1.4 µM

COc1ccc(-c2nc(-c3cccnc3O)n(-c3ccc(C(=O)O)cc3)n2)cc1 [compound 19]
IC50 ([5]; read-out: IC50 KLK1, 15 min preincubation at 37 °C): > 50 µM

COC(=O)CNC(=O)c1ccc(-n2nc(-c3ccccc3O)nc2-c2ccccc2O)cc1 [3ja]
Kd [1]: 0.175 ± 0.015 nM
IC50 [2]: > 50 µM

Oc1ccccc1-c1nc(-c2ccccc2O)n(-c2ccc(-c3nnn[nH]3)cc2)n1 [3v]
IC50 [2]: 44.1 ± 1.7 µM

COC(=O)C(Cc1ccccc1)NC(=O)c1ccc(-n2nc(-c3ccccc3O)nc2-c2ccccc2O)cc1 (stereo not drawn) [3ka]
IC50 [2]: > 50 µM

Reference: paper PMC12221113, “Deferasirox Derivatives as Inhibitors of Kallikrein‐Related Peptidases Associated to Neurodegenerative Diseases” (Chemmedchem, 2025)
